Series [1] is described as follows: H+/Na+ transport assay of bead-derived peptides (one-point).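 Also: relative to parent gramicidin A activity set to 1.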 Format: biochemical. Further details: key: relative activity; mean of two control wells = 1.00. The note with it: bead-derived peptide solution, EYPC/EYPG LUVs. An outline of the steps: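 One-point screen: peptide + pyranine-loaded LUVs, 30 min RT with vortexing, 96-well. Read-out is fluorescence intensity scaled as 100 × (Ix – I0)/(Imax – I0). Imax from Triton X-100, I0 from untreated vesicles, and the mean of the two control wells is set to 1.00.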

For series [2], the system named is P388 mouse leukemia cells. The note with it: 92 h. The essentials: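 Peptide stocks diluted 250× in growth medium; P388 cells 1 × 10^4 cells/mL final; 37 °C, 5% CO2, 92 h. WST-1 + 1-methoxy PMS, 4 h, A415. Output: % viability.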
Series [3] relates to Streptococcus pyogenes SSI-9. Briefly: Antibacterial activity assay of bead-derived peptides (three concentrations). The note with it: S. pyogenes, bead-derived peptide solution, three concentrations. Further details: key: +++: inhibition by the 640-fold diluted peptide solution; ++: inhibition by the 160-fold diluted solution; +: inhibition by the 40-fold diluted solution; -: no inhibition. Type of series: cell-based. An outline of the steps: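 First, each peptide stock was diluted 4- and 16-fold in DMSO; next, the three solutions were mixed with S. pyogenes SSI-9 suspension (2 × 10^5 CFU) in cation-adjusted Mueller Hinton Broth plus 5% laked horse blood; finally, plates stood 18 h at 37 °C before checking for grown-cell precipitation.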

Where a SMILES comes first, the peptide text is derived from it. [ ]: non-standard residue; d: D form. The star is where a group is joined. NHCH2CH2OH = OCCN*; For = O=C*

As to `CC(C)C[C@@H](NC(=O)[C@H](C)NC(=O)CNC(=O)[C@@H](NC=O)C(C)C)C(=O)N[C@@H](C)C(=O)N[C@@H](C(=O)N[C@H](C(=O)N[C@@H](C(=O)N[C@@H](Cc1c[nH]c2ccccc12)C(=O)N[C@H](CC(C)C)C(=O)N[C@@H](Cc1c[nH]c2ccccc12)C(=O)N[C@H](CC(C)C)C(=O)N[C@@H](Cc1c[nH]c2ccccc12)C(=O)N[C@H](CC(C)C)C(=O)N[C@@H](Cc1c[nH]c2ccccc12)C(=O)NCCO)[C@H](C)O)C(C)C)C(C)C` [compound 6766] (For-VGA[dL]A[dV]V[dT]W[dL]W[dL]W[dL]W-NHCH2CH2OH), in series [1], the “H+/Na+ transport activity normalized against the value of 1 (1.00)” value (shortened to “H+/Na+ transport activity normalized”) is reported as 1.07. The same molecule registered a cell viability/% in series [2] of 100.0%. The antibacterial activity result in series [3] is reported as “+”.
For the molecule `CC(C)C[C@@H](NC(=O)[C@@H](NC(=O)[C@H](NC(=O)[C@H](C)NC(=O)[C@H](NC(=O)[C@H](C)NC(=O)CNC(=O)[C@@H](NC=O)C(C)C)C(C)C)C(C)C)C(C)C)C(=O)N[C@@H](Cc1c[nH]c2ccccc12)C(=O)N[C@@H](C(=O)N[C@@H](Cc1c[nH]c2ccccc12)C(=O)N[C@@H](C(=O)N[C@@H](Cc1c[nH]c2ccccc12)C(=O)N[C@@H](C(=O)N[C@@H](Cc1c[nH]c2ccccc12)C(=O)NCCO)[C@H](C)O)C(C)C)C(C)C` [compound 6781] (For-VGA[dV]A[dV]V[dL]W[dV]W[dV]W[dT]W-NHCH2CH2OH), the “H+/Na+ transport activity normalized” value in series [1] is 1.04. In series [2], the cell viability/% is 100.0%. Moreover, the antibacterial activity entry in series [3] is reported as “+”.
With `CC(C)C[C@@H](NC(=O)[C@H](C)NC(=O)[C@H](NC(=O)[C@H](C)NC(=O)CNC(=O)[C@@H](NC=O)C(C)C)[C@H](C)O)C(=O)N[C@H](C(=O)N[C@H](CC(C)C)C(=O)N[C@@H](Cc1c[nH]c2ccccc12)C(=O)N[C@@H](C(=O)N[C@@H](Cc1c[nH]c2ccccc12)C(=O)N[C@H](CC(C)C)C(=O)N[C@@H](Cc1c[nH]c2ccccc12)C(=O)N[C@@H](C(=O)N[C@@H](Cc1c[nH]c2ccccc12)C(=O)NCCO)C(C)C)C(C)C)C(C)C` [compound 6797] (For-VGA[dT]A[dL]V[dL]W[dV]W[dL]W[dV]W-NHCH2CH2OH), in series [1], the “H+/Na+ transport activity normalized” value amounted to 1.02. The molecule also had a cell viability/% in series [2] of 100.0%. In addition, the antibacterial activity result in series [3] was “-”.
For `CNC(=O)C[C@@H](NC(=O)[C@H](Cc1c[nH]c2ccccc12)NC(=O)[C@H](NC(=O)[C@H](Cc1c[nH]c2ccccc12)NC(=O)[C@H](NC(=O)[C@H](Cc1c[nH]c2ccccc12)NC(=O)[C@@H](CC(C)C)NC(=O)[C@@H](NC(=O)[C@H](NC(=O)[C@H](C)NC(=O)[C@@H](CC(C)C)NC(=O)[C@H](C)NC(=O)CNC(=O)[C@@H](NC=O)C(C)C)C(C)C)C(C)C)C(C)C)C(C)C)C(=O)N[C@@H](Cc1c[nH]c2ccccc12)C(=O)NCCO` [compound 6808] (For-VGA[dL]A[dV]V[dL]W[dV]W[dV]W[dD](NHMe)W-NHCH2CH2OH), in that order: 1.02, 100.0% and “-”.
For `CC(C)C[C@@H](NC(=O)[C@H](Cc1c[nH]c2ccccc12)NC(=O)[C@H](NC(=O)[C@H](Cc1c[nH]c2ccccc12)NC(=O)[C@H](NC(=O)[C@@H](NC(=O)[C@H](NC(=O)[C@H](C)NC(=O)[C@H](NC(=O)[C@H](C)NC(=O)CNC(=O)[C@@H](NC=O)C(C)C)[C@H](C)O)C(C)C)C(C)C)C(C)C)C(C)C)C(=O)N[C@@H](Cc1c[nH]c2ccccc12)C(=O)N[C@@H](C(=O)N[C@@H](Cc1c[nH]c2ccccc12)C(=O)NCCO)C(C)C` [compound 6820] (For-VGA[dT]A[dV]V[dV]W[dV]W[dL]W[dV]W-NHCH2CH2OH) the same measures were 1.20, 100.0% and “-”.
As for `CNC(=O)C[C@@H](NC(=O)[C@@H](NC(=O)[C@@H](CC(C)C)NC(=O)[C@H](C)NC(=O)[C@H](NC(=O)[C@H](C)NC(=O)CNC(=O)[C@@H](NC=O)C(C)C)C(C)C)C(C)C)C(=O)N[C@@H](Cc1c[nH]c2ccccc12)C(=O)N[C@H](CC(C)C)C(=O)N[C@@H](Cc1c[nH]c2ccccc12)C(=O)N[C@@H](C(=O)N[C@@H](Cc1c[nH]c2ccccc12)C(=O)N[C@@H](C(=O)N[C@@H](Cc1c[nH]c2ccccc12)C(=O)NCCO)C(C)C)C(C)C` [compound 6822] (For-VGA[dV]A[dL]V[dD](NHMe)W[dL]W[dV]W[dV]W-NHCH2CH2OH), the “H+/Na+ transport activity normalized” value in series [1] was found to be 1.23. Further, in series [2], the cell viability/% worked out at 100.0%. The antibacterial activity entry in series [3] is recorded as “-”.
For `CNC(=O)C[C@@H](NC(=O)[C@H](Cc1c[nH]c2ccccc12)NC(=O)[C@@H](CC(C)C)NC(=O)[C@H](Cc1c[nH]c2ccccc12)NC(=O)[C@@H](CC(C)C)NC(=O)[C@H](Cc1c[nH]c2ccccc12)NC(=O)[C@H](NC(=O)[C@@H](NC(=O)[C@@H](CC(C)C)NC(=O)[C@H](C)NC(=O)[C@@H](CC(C)C)NC(=O)[C@H](C)NC(=O)CNC(=O)[C@@H](NC=O)C(C)C)C(C)C)C(C)C)C(=O)N[C@@H](Cc1c[nH]c2ccccc12)C(=O)NCCO` [compound 6829] (For-VGA[dL]A[dL]V[dV]W[dL]W[dL]W[dD](NHMe)W-NHCH2CH2OH) the same measures were 1.05, 100.0% and “-”.
For `CC(C)C[C@@H](NC(=O)[C@H](Cc1c[nH]c2ccccc12)NC(=O)[C@H](NC(=O)[C@@H](NC(=O)[C@H](NC(=O)[C@H](C)NC(=O)[C@H](NC(=O)[C@H](C)NC(=O)CNC(=O)[C@@H](NC=O)C(C)C)[C@H](C)O)C(C)C)C(C)C)C(C)C)C(=O)N[C@@H](Cc1c[nH]c2ccccc12)C(=O)N[C@H](CC(C)C)C(=O)N[C@@H](Cc1c[nH]c2ccccc12)C(=O)N[C@@H](C(=O)N[C@@H](Cc1c[nH]c2ccccc12)C(=O)NCCO)C(C)C` [compound 6843] (For-VGA[dT]A[dV]V[dV]W[dL]W[dL]W[dV]W-NHCH2CH2OH), in that order: 1.15, 100.0% and “-”.
For `CNC(=O)C[C@@H](NC(=O)[C@@H](NC(=O)[C@@H](CC(C)C)NC(=O)[C@H](C)NC(=O)[C@@H](CC(C)C)NC(=O)[C@H](C)NC(=O)CNC(=O)[C@@H](NC=O)C(C)C)C(C)C)C(=O)N[C@@H](Cc1c[nH]c2ccccc12)C(=O)N[C@H](CC(C)C)C(=O)N[C@@H](Cc1c[nH]c2ccccc12)C(=O)N[C@H](CC(C)C)C(=O)N[C@@H](Cc1c[nH]c2ccccc12)C(=O)N[C@@H](C(=O)N[C@@H](Cc1c[nH]c2ccccc12)C(=O)NCCO)C(C)C` [compound 6851] (For-VGA[dL]A[dL]V[dD](NHMe)W[dL]W[dL]W[dV]W-NHCH2CH2OH), in that order: 1.16, 100.0% and “-”.
Turning to `CC(C)C[C@@H](NC(=O)[C@H](C)NC(=O)[C@H](NC(=O)[C@H](C)NC(=O)CNC(=O)[C@@H](NC=O)C(C)C)[C@H](C)O)C(=O)N[C@H](C(=O)N[C@@H](C(=O)N[C@@H](Cc1c[nH]c2ccccc12)C(=O)N[C@@H](C(=O)N[C@@H](Cc1c[nH]c2ccccc12)C(=O)N[C@H](CC(C)C)C(=O)N[C@@H](Cc1c[nH]c2ccccc12)C(=O)N[C@@H](C(=O)N[C@@H](Cc1c[nH]c2ccccc12)C(=O)NCCO)C(C)C)C(C)C)C(C)C)C(C)C` [compound 6857] (For-VGA[dT]A[dL]V[dV]W[dV]W[dL]W[dV]W-NHCH2CH2OH), in series [1], the “H+/Na+ transport activity normalized” value is on record as 1.16. This molecule also returned a cell viability/% in series [2] of 100.0%. The antibacterial activity entry in series [3] was “-”.
In the case of `CC(C)C[C@@H](NC(=O)[C@H](C)NC(=O)CNC(=O)[C@@H](NC=O)C(C)C)C(=O)N[C@@H](C)C(=O)N[C@@H](C(=O)N[C@H](C(=O)N[C@@H](C(=O)N[C@@H](Cc1c[nH]c2ccccc12)C(=O)N[C@@H](C(=O)N[C@@H](Cc1c[nH]c2ccccc12)C(=O)N[C@H](CC(C)C)C(=O)N[C@@H](Cc1c[nH]c2ccccc12)C(=O)N[C@@H](C(=O)N[C@@H](Cc1c[nH]c2ccccc12)C(=O)NCCO)C(C)C)C(C)C)C(C)C)C(C)C)C(C)C` [compound 6861] (For-VGA[dL]A[dV]V[dV]W[dV]W[dL]W[dV]W-NHCH2CH2OH), in series [1], the “H+/Na+ transport activity normalized” value is listed as 1.18. In addition, the cell viability/% in series [2] is 100.0%. Also, the antibacterial activity result in series [3] is reported as “+”.
For `CNC(=O)C[C@@H](NC(=O)[C@@H](NC(=O)[C@H](NC(=O)[C@H](C)NC(=O)[C@H](NC(=O)[C@H](C)NC(=O)CNC(=O)[C@@H](NC=O)C(C)C)C(C)C)C(C)C)C(C)C)C(=O)N[C@@H](Cc1c[nH]c2ccccc12)C(=O)N[C@H](CC(C)C)C(=O)N[C@@H](Cc1c[nH]c2ccccc12)C(=O)N[C@H](CC(C)C)C(=O)N[C@@H](Cc1c[nH]c2ccccc12)C(=O)N[C@H](CC(C)C)C(=O)N[C@@H](Cc1c[nH]c2ccccc12)C(=O)NCCO` [compound 6862] (For-VGA[dV]A[dV]V[dD](NHMe)W[dL]W[dL]W[dL]W-NHCH2CH2OH), in that order: 1.31, 100.0% and “-”.
